Source: publication PMC4338257 (Drug Design, Development and Therapy, 2015)

Target: human ether-à-go-go-related gene (hERG) channel (Kv11.1) (Homo sapiens, UniProt Q12809)
Test: whole-cell patch clamp in HEK […] cells stably expressing hERG
Type: cell-based

human ether-à-go-go-related gene (hERG) channel (Kv11.1), sequence (Q12809 whole entry): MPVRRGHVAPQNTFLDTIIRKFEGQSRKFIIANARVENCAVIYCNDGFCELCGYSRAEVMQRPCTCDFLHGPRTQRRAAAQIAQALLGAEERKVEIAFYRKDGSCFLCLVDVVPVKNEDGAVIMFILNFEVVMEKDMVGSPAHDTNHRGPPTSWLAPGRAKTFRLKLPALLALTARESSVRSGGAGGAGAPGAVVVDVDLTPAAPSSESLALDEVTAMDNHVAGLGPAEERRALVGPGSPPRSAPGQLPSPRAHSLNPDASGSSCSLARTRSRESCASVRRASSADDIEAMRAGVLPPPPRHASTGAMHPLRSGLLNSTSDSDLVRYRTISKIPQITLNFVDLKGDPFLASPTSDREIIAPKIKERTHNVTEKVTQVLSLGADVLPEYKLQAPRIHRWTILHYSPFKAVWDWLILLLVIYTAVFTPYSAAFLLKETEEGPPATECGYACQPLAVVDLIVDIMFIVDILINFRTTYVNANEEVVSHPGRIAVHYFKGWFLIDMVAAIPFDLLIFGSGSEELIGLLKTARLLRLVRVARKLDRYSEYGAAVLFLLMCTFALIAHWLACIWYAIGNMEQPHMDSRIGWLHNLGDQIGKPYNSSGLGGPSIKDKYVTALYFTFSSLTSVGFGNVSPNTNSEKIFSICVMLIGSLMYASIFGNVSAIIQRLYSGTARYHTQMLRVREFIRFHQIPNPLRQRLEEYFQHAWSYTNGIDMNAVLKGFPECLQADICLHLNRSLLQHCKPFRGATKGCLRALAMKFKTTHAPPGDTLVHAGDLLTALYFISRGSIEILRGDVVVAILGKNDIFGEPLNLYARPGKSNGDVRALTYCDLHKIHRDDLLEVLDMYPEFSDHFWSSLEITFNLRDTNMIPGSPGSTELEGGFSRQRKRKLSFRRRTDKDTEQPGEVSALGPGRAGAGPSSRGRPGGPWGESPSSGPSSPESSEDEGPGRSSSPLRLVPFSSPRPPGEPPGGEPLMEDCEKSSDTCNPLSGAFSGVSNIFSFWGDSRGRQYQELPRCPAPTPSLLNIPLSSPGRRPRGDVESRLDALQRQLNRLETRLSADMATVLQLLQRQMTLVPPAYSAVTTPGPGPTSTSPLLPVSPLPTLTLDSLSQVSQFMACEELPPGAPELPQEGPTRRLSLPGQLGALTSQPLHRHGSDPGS

Cc1ncc2n1-c1ccc(Cl)cc1C(c1ccccc1F)=NC2 [midazolam]
IC50: 13.6 µM
